Structures can show the parent of a compound that is named as a salt.
Columns and labels:
full-length human LSD1 = full-length human LSD1 (Homo sapiens (Human), UniProt O60341); assay: In vitro enzyme inhibition assay LSD-1 (TR-FRET); format: biochemical; details: TR-FRET, 0.1 nM LSD1, 50 nM H3K4me1-biotin peptide, 2 μM FAD, pH7.3; read-out: LSD1 IC50
Procedure: This assay determines the ability of a test compound to inhibit LSD1 demethylase activity.
The enzymatic assay of LSD1 activity is based on Time Resolved-Fluorescence Resonance Energy Transfer (TR-FRET) detection.
The ability of the compounds disclosed herein to inhibit LSD1 activity was quantified and the respective IC50 value was determined. Table 5 provides the IC50 values of various substituted heterocyclic compounds disclosed herein.

THP-1 (AML) cells = assay: LSD1 CD11b cellular assay (flow cytometry); format: cell-based; details: Homo sapiens, 96 h; CD11b expression in THP-1 (AML) cells, flow cytometry, 4 days incubation; read-out: Cellular IC50
Procedure: To analyze LSD1 inhibitor efficacy in cells, a CD11b flow cytometry assay was performed. LSD1 inhibition induces CD11b expression in THP-1 (AML) cells which can be measured by flow cytometry. […] LSD1 test compounds were serially diluted in DMSO. The dilutions were added to each well accordingly to a final concentration of 0.2% DMSO. The cells were incubated at 37° C. in 5% CO2 for 4 days. 250 μL of each well was transferred to a well in a 96 well round bottom plate. The plate was centrifuged at 1200 rpm at 4 degrees Celsius in a Beckman Coulter Alegra 6KR centrifuge for 5 min. The media was removed leaving the cells at the bottom of the wells. The cells were washed in 100 μL cold HBSS (Hank's Balanced Salt Solution) plus 2% BSA (Bovine Serum Albumin) solution and centrifuged at 1200 rpm at 4° C. for 5 min. The wash was removed. […] The cells were centrifuged and washed two times in 100 μl HBSS plus 2% BSA. After the final spin the cells were resuspended in 100 μL HBSS plus 2% BSA containing 1 μg/mL DAPI (4′,6-diamidino-2-phenylindole). The cells were then analyzed by flow cytometry in a BD FACSAria machine. Cells were analyzed for CD11b expression. The percent of CD11b expressing cells for each inhibitor concentration was used to determine an IC50 curve for each compound analyzed.

| IC50 (full-length human LSD1) [nM] | IC50 (THP-1 (AML) cells) [nM] | Compound |
| --- | --- | --- |
| < 100 | < 100 | CCNc1nc(N2CCC(N)CC2)nc(-c2ccc(C#N)c(F)c2)c1-c1ccc2nn(C)cc2c1 [Example 166, 4-[2-(4-aminopiperidin-1-yl)-6-(ethylamino)-5-(2-methyl-2H-indazol-5-yl)-pyrimidin-4-yl]-2-fluorobenzonitrile] |
| < 100 | 100 to 1000 | Cn1cc2cc(-c3cnc(N4CC5C(N)C5C4)nc3-c3ccc(C#N)c(F)c3)ccc2n1 (stereo not shown) [Example 144, 4-[2-(6-amino-3-azabicyclo[3.1.0]hexan-3-yl)-5-(2-methylindazol-5-yl)pyrimidin-4-yl]-2-fluorobenzonitrile] |
| < 100 | < 100 | COc1nc(N2CCC(N)CC2)nc(-c2ccc(C#N)c(F)c2)c1-c1cnc2c(cnn2C)c1 [Example 159, 4-[2-(4-aminopiperidin-1-yl)-6-methoxy-5-{1-methyl-1H-pyrazolo[3,4-b]pyridin-5-yl}pyrimidin-4-yl]-2-fluorobenzonitrile] |
| < 100 | < 100 | CNc1nc(N2CCC(N(C)C)CC2)nc(-c2ccc(C#N)cc2)c1-c1ccc2nn(C)cc2c1 [Example 173, 4-{2-[4-(dimethylamino)piperidin-1-yl]-5-(2-methyl-2H-indazol-5-yl)-6-(methylamino)pyrimidin-4-yl}benzonitrile] |
| < 100 | < 100 | CNc1nc(N2CCC(N)CC2)nc(-c2ccc(C#N)cc2)c1-c1ccc2c(c1)nnn2C [Example 170] |
| < 100 | < 100 | CNc1nc(N2CCC(N)CC2)nc(-c2ccc(C#N)c(F)c2)c1-c1ccc(N(C)C)nc1 [Example 169, 4-[2-(4-aminopiperidin-1-yl)-5-[6-(dimethylamino)pyridin-3-yl]-6-(methylamino)pyrimidin-4-yl]-2-fluorobenzonitrile] |
| < 100 | < 100 | CNc1nc(N2CCCNCC2)nc(-c2ccc(C#N)c(F)c2)c1-c1ccc2nn(C)cc2c1 [Example 162, 4-[2-(1,4-diazepan-1-yl)-5-(2-methyl-2H-indazol-5-yl)-6-(methylamino)pyrimidin-4-yl]-2-fluorobenzonitrile] |
| < 100 | < 100 | CNc1nc(N2CCC(N)CC2)nc(-c2ccc(C#N)cc2)c1-c1ccc2c(cnn2C)c1 [Example 164, 4-[2-(4-aminopiperidin-1-yl)-5-(1-methyl-1H-indazol-5-yl)-6-(methylamino)pyrimidin-4-yl]benzonitrile] |
| < 100 | < 100 | CNc1nc(N2CC[C@@H](N)[C@@H](F)C2)nc(-c2ccc(C#N)cc2)c1-c1ccc2nn(C)cc2c1 [Example 177, 4-{2-[(3S,4R)-4-amino-3-fluoropiperidin-1-yl]-5-(2-methyl-2H-indazol-5-yl)-6-(methylamino)pyrimidin-4-yl}benzonitrile] |

Continued, molecule first:

| Compound | IC50 (full-length human LSD1) [nM] | IC50 (THP-1 (AML) cells) [nM] |
| --- | --- | --- |
| Cn1ncc2nc(-c3cnc(N4CCC(N)CC4)nc3-c3ccc(C#N)cc3)ccc21 [Example 67, 4-[2-(4-aminopiperidin-1-yl)-5-(1-methylpyrazolo[4,3-b]pyridin-5-yl)pyrimidin-4-yl]benzonitrile] | < 100 | 100 to 1000 |
| N#Cc1ccc(-c2nc(N3CCC4(CCNC4)CC3)ncc2-c2cnn(CC(F)(F)F)c2)cc1 [Example 62, 4-[2-(2,8-diazaspiro[4.5]decan-8-yl)-5-[1-(2,2,2-trifluoroethyl)pyrazol-4-yl]pyrimidin-4-yl]benzonitrile] | < 100 | < 100 |
| COc1ccc(-c2nc3ccn(C[C@@H]4CCNC4)c3cc2-c2ccc(C#N)cc2)cc1F [Example 50, 4-{1-[((3R)pyrrolidin-3-yl)methyl]-5-(3-fluoro-4-methoxyphenyl)pyrrolo[3,2-b]pyridin-6-yl}benzenecarbonitrile, HCl salt] | < 100 | < 100 |
| Cn1ncc2cc(-c3cnc(N4CCC(N)CC4)nc3-c3ccc(C#N)cc3)ccc21 [Example 116, 4-[2-(4-aminopiperidin-1-yl)-5-(1-methylindazol-5-yl)pyrimidin-4-yl]benzonitrile] | < 100 | < 100 |
| Cc1ccc(-c2nc3ccn(C[C@H]4CNCCO4)c3cc2-c2ccc(C#N)cc2)cc1 [Example 10, 4-[5-(4-methylphenyl)-1-[[(2R)-morpholin-2-yl]methyl]pyrrolo[3,2-b]pyridin-6-yl]benzonitrile] | < 100 | 1000 to 10000 |
| COc1ccc(-c2nc3ccn(C[C@@H]4CCNC4)c3cc2-c2ccc(C#N)c(F)c2)cc1F [Example 53, 4-{1-[((3R)pyrrolidin-3-yl)methyl]-5-(3-fluoro-4-methoxyphenyl)pyrrolo[3,2-b]pyridin-6-yl}-2-fluorobenzenecarbonitrile HCl salt] | < 100 | < 100 |
| N#Cc1ccc(-c2cc3c(ccn3C[C@H]3CCNC3)nc2-c2ccc(F)cc2)cc1 [Example 5, 4-[5-(4-fluorophenyl)-1-[[(3S)-pyrrolidin-3-yl]methyl]pyrrolo[3,2-b]pyridin-6-yl]benzonitrile] | < 100 | 1000 to 10000 |
| N#Cc1ccc(-c2cc3c(ccn3C[C@H]3CCNC3)nc2Cl)cc1 [Example 4, 4-[5-chloro-1-[[(3S)-pyrrolidin-3-yl]methyl]pyrrolo[3,2-b]pyridin-6-yl]benzonitrile] | 100 to 1000 | 1000 to 10000 |
| Cc1ccc(-c2nc3ccn(CCCN)c3cc2-c2ccc(C#N)cc2)cc1 [Example 12] | < 100 | 100 to 1000 |
| N#Cc1ccc(-c2nc(N3CCC(N)CC3)ncc2-c2ccc(OCC3CC3)nc2)cc1 [Example 124, 4-[2-(4-aminopiperidin-1-yl)-5-[6-(cyclopropylmethoxy)pyridin-3-yl]pyrimidin-4-yl]benzonitrile] | < 100 | < 100 |
| COc1nc(N2CCC(N)CC2)nc(-c2ccc(C#N)cc2)c1-c1cnc(N(C)C)nc1 [Example 156, 4-[2-(4-aminopiperidin-1-yl)-5-[2-(dimethylamino)pyrimidin-5-yl]-6-methoxypyrimidin-4-yl]benzonitrile] | < 100 | < 100 |
| N#Cc1ccc(-c2nc(N3CCC(N)CC3)ncc2-c2cnc(NC3CC3)nc2)cc1F [Example 141, 4-[2-(4-aminopiperidin-1-yl)-5-[2-(cyclopropylamino)pyrimidin-5-yl]pyrimidin-4-yl]-2-fluorobenzonitrile] | < 100 | < 100 |
| CNc1nc(N2CCC(N)CC2)nc(-c2ccc(C#N)cc2)c1-c1cnn(CC(F)(F)F)c1 [Example 174, 4-[2-(4-aminopiperidin-1-yl)-6-(methylamino)-5-[1-(2,2,2-trifluoroethyl)-1H-pyrazol-4-yl]pyrimidin-4-yl]-benzonitrile] | < 100 | < 100 |
| N#Cc1ccc(-c2nc(N3CCC(N)CC3)ncc2-c2ccc3c(c2)ncn3C(F)F)cc1 [Example 79, 4-[2-(4-aminopiperidin-1-yl)-5-[1-(difluoromethyl)benzimidazol-5-yl]pyrimidin-4-yl]benzonitrile] | < 100 | < 100 |
| Cn1ncc2cc(-c3cnc(N4CC5CNCC(C5)C4)nc3-c3ccc(C#N)cc3)ccc21 [Example 120, 4-[2-(3,7-diazabicyclo[3.3.1]nonan-3-yl)-5-(1-methylindazol-5-yl)pyrimidin-4-yl]benzonitrile] | < 100 | 100 to 1000 |
| Cn1cnc2cc(-c3cnc(N4CCC5(CCNC5)CC4)nc3-c3ccc(C#N)c(F)c3)cnc21 [Example 137, 4-[2-(2,8-diazaspiro[4.5]decan-8-yl)-5-(3-methylimidazo[4,5-b]pyridin-6-yl)pyrimidin-4-yl]-2-fluorobenzonitrile] | < 100 | < 100 |
| COc1ccc(-c2nc3ccn(C[C@@H]4CCNC4)c3cc2-c2ccc(C#N)cc2)cc1 [Example 49, 4-{1-[((3R)pyrrolidin-3-yl)methyl]-5-(4-methoxyphenyl)pyrrolo[3,2-b]pyridin-6-yl}benzenecarbonitrile, HCl salt] | < 100 | < 100 |
| Cn1ncc2cc(-c3cnc(N4CCC(N)CC4)nc3-c3ccc(C#N)cc3)cnc21 [Example 64, 4-[2-(4-aminopiperidin-1-yl)-5-(1-methylpyrazolo[3,4-b]pyridin-5-yl)pyrimidin-4-yl]benzonitrile] | < 100 | < 100 |
| Cc1ccc(-c2cnc(N3CCC4CNCC4CC3)nc2-c2ccc(C#N)cc2)cn1 (stereo not shown) [Example 114, 4-[2-(2,3,3a,4,5,7,8,8a-octahydro-1H-pyrrolo[3,4-d]azepin-6-yl)-5-(6-methylpyridin-3-yl)pyrimidin-4-yl]benzonitrile] | < 100 | 100 to 1000 |
| N#Cc1ccc(-c2cc3c(ccn3C[C@H]3CNCCO3)nc2-c2ccc(F)cc2)cc1 [Example 11, 4-[5-(4-fluorophenyl)-1-[[(2R)-morpholin-2-yl]methyl]pyrrolo[3,2-b]pyridin-6-yl]benzonitrile] | < 100 | 1000 to 10000 |
